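In this assay, cells in 96-well plates receive the compound at five concentrations for 48 hours. Endpoints are linearly interpolated between the surrounding concentrations. GI50: concentration for 50% inhibition of growth. TGI: concentration producing complete growth inhibition.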
What was measured:
Test in all cases: growth of human tumour cells (NCI), 48 h
NCI-H226 lung = system: NCI-H226 lung
BT-549 breast = system: BT-549 breast
SNB-75 CNS = system: SNB-75 CNS
TK-10 renal = system: TK-10 renal
UACC-62 melanoma = system: UACC-62 melanoma
NCI-H522 lung = system: NCI-H522 lung
PC-3 prostate = system: PC-3 prostate
LOX IMVI melanoma = system: LOX IMVI melanoma
A498 renal = system: A498 renal
SF-539 CNS = system: SF-539 CNS
MCF7 breast = system: MCF7 breast
IGROV1 ovarian = system: IGROV1 ovarian
KM12 colon = system: KM12 colon
HCT-15 colon = system: HCT-15 colon
MALME-3M melanoma = system: MALME-3M melanoma
HOP-92 NSCLC = system: HOP-92 NSCLC
CCRF-CEM leukemia = system: CCRF-CEM leukemia
A549 NSCLC = system: A549 NSCLC
MDA-MB-435 = system: MDA-MB-435
UACC-257 melanoma = system: UACC-257 melanoma
HCC-2998 colon = system: HCC-2998 colon
SW-620 colon = system: SW-620 colon
786-0 renal = system: 786-0 renal
OVCAR-5 ovarian = system: OVCAR-5 ovarian
M14 melanoma = system: M14 melanoma
NCI-H23 lung = system: NCI-H23 lung
MOLT-4 leukemia = system: MOLT-4 leukemia
CAKI-1 renal = system: CAKI-1 renal
OVCAR-4 ovarian = system: OVCAR-4 ovarian
HL-60(TB) leukemia = system: HL-60(TB) leukemia
COLO 205 colon = system: COLO 205 colon
NCI-H460 lung = system: NCI-H460 lung
SF-295 CNS = system: SF-295 CNS
SF-268 CNS = system: SF-268 CNS
K-562 leukemia = system: K-562 leukemia
SN12C renal = system: SN12C renal
U251 CNS = system: U251 CNS
SK-MEL-28 melanoma = system: SK-MEL-28 melanoma
DU-145 prostate = system: DU-145 prostate
HOP-62 NSCLC = system: HOP-62 NSCLC
SK-OV-3 ovarian = system: SK-OV-3 ovarian
EKVX NSCLC = system: EKVX NSCLC
OVCAR-8 ovarian = system: OVCAR-8 ovarian
MDA-MB-231 breast = system: MDA-MB-231 breast
HCT-116 colon = system: HCT-116 colon
UO-31 renal = system: UO-31 renal
SK-MEL-2 melanoma = system: SK-MEL-2 melanoma
RXF 393 renal = system: RXF 393 renal
OVCAR-3 ovarian = system: OVCAR-3 ovarian
RPMI-8226 leukemia = system: RPMI-8226 leukemia
SR leukemia = system: SR leukemia
SK-MEL-5 melanoma = system: SK-MEL-5 melanoma
T-47D breast = system: T-47D breast
HT29 colon = system: HT29 colon
ACHN renal = system: ACHN renal
NCI/ADR-RES ovarian = system: NCI/ADR-RES ovarian
SNB-19 CNS = system: SNB-19 CNS
HS 578T breast = system: HS 578T breast

NCCCCCCn1c2c(c3ccccc3c1=O)C(=O)c1ccccc1-2
GI50 (NCI-H226 lung): 1080 nM | TGI (NCI-H226 lung): 3070 nM | GI50 (BT-549 breast): 1800 nM | TGI (BT-549 breast): 4730 nM | GI50 (SNB-75 CNS): 1750 nM | TGI (SNB-75 CNS): 7720 nM | GI50 (TK-10 renal): 1650 nM | TGI (TK-10 renal): 3820 nM | GI50 (UACC-62 melanoma): 1630 nM | TGI (UACC-62 melanoma): 3500 nM | GI50 (NCI-H522 lung): 1170 nM | TGI (NCI-H522 lung): 2880 nM | GI50 (PC-3 prostate): 2120 nM | TGI (PC-3 prostate): 11800 nM | GI50 (LOX IMVI melanoma): 1120 nM | TGI (LOX IMVI melanoma): 2990 nM | GI50 (A498 renal): 675 nM | TGI (A498 renal): 2970 nM | GI50 (SF-539 CNS): 1240 nM | TGI (SF-539 CNS): 3590 nM | GI50 (MCF7 breast): 744 nM | TGI (MCF7 breast): 3610 nM | GI50 (IGROV1 ovarian): 1070 nM | TGI (IGROV1 ovarian): 4310 nM | GI50 (KM12 colon): 1380 nM | TGI (KM12 colon): 6900 nM | GI50 (HCT-15 colon): 717 nM | TGI (HCT-15 colon): 5860 nM | GI50 (MALME-3M melanoma): 1910 nM | TGI (MALME-3M melanoma): 4610 nM | GI50 (HOP-92 NSCLC): 2570 nM | TGI (HOP-92 NSCLC): 16000 nM | GI50 (CCRF-CEM leukemia): 512 nM | TGI (CCRF-CEM leukemia): 3210 nM | GI50 (A549 NSCLC): 1220 nM | TGI (A549 NSCLC): 25800 nM | GI50 (MDA-MB-435): 2050 nM | TGI (MDA-MB-435): 4760 nM | GI50 (UACC-257 melanoma): 2360 nM | TGI (UACC-257 melanoma): 5800 nM | GI50 (HCC-2998 colon): 2250 nM | TGI (HCC-2998 colon): 14300 nM | GI50 (SW-620 colon): 613 nM | TGI (SW-620 colon): 3160 nM | GI50 (786-0 renal): 603 nM | TGI (786-0 renal): > 100000 nM | GI50 (OVCAR-5 ovarian): 1880 nM | TGI (OVCAR-5 ovarian): 4600 nM | GI50 (M14 melanoma): 2280 nM | TGI (M14 melanoma): 5000 nM | GI50 (NCI-H23 lung): 1500 nM | TGI (NCI-H23 lung): 6540 nM | GI50 (MOLT-4 leukemia): 237 nM | TGI (MOLT-4 leukemia): 972 nM | GI50 (CAKI-1 renal): 1960 nM | TGI (CAKI-1 renal): 8250 nM | GI50 (OVCAR-4 ovarian): 2190 nM | TGI (OVCAR-4 ovarian): 7240 nM | GI50 (HL-60(TB) leukemia): 266 nM | TGI (HL-60(TB) leukemia): 1420 nM | GI50 (COLO 205 colon): 1600 nM | TGI (COLO 205 colon): 13700 nM | GI50 (NCI-H460 lung): 415 nM | TGI (NCI-H460 lung): 11300 nM | GI50 (SF-295 CNS): 1470 nM | TGI (SF-295 CNS): 5560 nM | GI50 (SF-268 CNS): 2300 nM | TGI (SF-268 CNS): 16200 nM | GI50 (K-562 leukemia): 705 nM | TGI (K-562 leukemia): 5350 nM | GI50 (SN12C renal): 1330 nM | TGI (SN12C renal): 6090 nM | GI50 (U251 CNS): 1430 nM | TGI (U251 CNS): 12300 nM | GI50 (SK-MEL-28 melanoma): 1900 nM | TGI (SK-MEL-28 melanoma): 3760 nM | GI50 (DU-145 prostate): 608 nM | TGI (DU-145 prostate): > 100000 nM | GI50 (HOP-62 NSCLC): 1280 nM | TGI (HOP-62 NSCLC): 4500 nM | GI50 (SK-OV-3 ovarian): 720 nM | TGI (SK-OV-3 ovarian): 7420 nM | GI50 (EKVX NSCLC): 10300 nM | TGI (EKVX NSCLC): 28800 nM | GI50 (OVCAR-8 ovarian): 1540 nM | TGI (OVCAR-8 ovarian): 11300 nM | GI50 (MDA-MB-231 breast): 1980 nM | TGI (MDA-MB-231 breast): 5460 nM | GI50 (HCT-116 colon): 909 nM | TGI (HCT-116 colon): 6110 nM | GI50 (UO-31 renal): 442 nM | TGI (UO-31 renal): 1850 nM | GI50 (SK-MEL-2 melanoma): 1870 nM | TGI (SK-MEL-2 melanoma): 3540 nM | GI50 (RXF 393 renal): 12000 nM | TGI (RXF 393 renal): 64800 nM | GI50 (OVCAR-3 ovarian): 1980 nM | TGI (OVCAR-3 ovarian): 6240 nM | GI50 (RPMI-8226 leukemia): 1530 nM | TGI (RPMI-8226 leukemia): 6070 nM | GI50 (SR leukemia): 349 nM | TGI (SR leukemia): 2090 nM | GI50 (SK-MEL-5 melanoma): 1300 nM | TGI (SK-MEL-5 melanoma): 2750 nM | GI50 (T-47D breast): 1850 nM | TGI (T-47D breast): 5930 nM | GI50 (HT29 colon): 1200 nM | TGI (HT29 colon): 4420 nM | GI50 (ACHN renal): 526 nM | TGI (ACHN renal): 2710 nM | GI50 (NCI/ADR-RES ovarian): 2460 nM | TGI (NCI/ADR-RES ovarian): 11700 nM | GI50 (SNB-19 CNS): 1190 nM | TGI (SNB-19 CNS): 10100 nM | GI50 (HS 578T breast): 2510 nM | TGI (HS 578T breast): 11100 nM
